In patent publication US9073868B2, “Benzazepine derivatives useful as vasopressin antagonists” (Otsuka Pharmaceutical Co., Ltd., priority 2007, dated 2015):

Tests used:
[1] = Test Example 1: oral absorption in rats, serum concentrations of tolvaptan after oral suspension; assay type: in vivo; conditions: male rats deprived of food about 18 hours, forced oral administration of suspension, 1 mg of tolvaptan per kg, Mean ± S.D. (n = 3 or 4)
Procedure: The compounds obtained in Examples 1, 50, and 52 were used as test compounds.
Each test compound, (Examples 1, 50, and 52) equivalent to 10 mg of tolvaptan, and hypromellose (125 mg) were suspended in 25 ml of water for injection in a porcelain mortar, to thereby obtain a suspension equivalent to 0.4 mg of tolvaptan per ml of suspension.
A spray-dried tolvaptan powder equivalent to 60 mg of tolvaptan, which was prepared in a similar manner to Example 3 of Japanese Unexamined Patent Publication No. 1999-21241, was suspended in 50 ml of water for injection in a porcelain mortar. This suspension was diluted three-fold with water for injection, preparing a suspension of spray-dried powder equivalent to 0.4 mg of tolvaptan per ml of suspension.
The following tests were conducted to examine the oral absorption features of each suspension. Male rats (body weight: about 180 g) that had been deprived of food for about 18 hours were used as test animals. The above suspensions were each administered by forced oral administration using a sonde for oral administration at a dose of 2.5 ml/kg of body weight, producing 1 mg of tolvaptan per kg of body weight. The blood samples were collected from the jugular vein under light diethyl ether anesthesia at the time of 0.5 hour, 1 hour, 2 hours, 4 hours, 6 hours, and 8 hours later after dosing. The serum concentrations of tolvaptan (ng/ml) were determined by using UPLC-MS/MS (Waters).
The average phaLmacokinetic parameters were calculated from the results.

[2] = Test Example 2: oral absorption in rats, serum concentrations of tolvaptan after oral solution or suspension; assay type: in vivo; conditions: rat, male rats fasted about 18 hours, forced oral administration of suspension or solution, 1 mg of tolvaptan per kg, Mean ± S.D. (n = 4)
Procedure: The compounds obtained in Examples 74 was used as test compounds.
The test compound, (Examples 1) equivalent to 10 mg of tolvaptan, and hydroxypropylcellulose (5 mg) was dissolved in 25 ml of water for injection in a porcelain mortar, to thereby obtain a solution equivalent to 0.4 mg of tolvaptan per ml.
A spray-dried tolvaptan powder equivalent to 10 mg of tolvaptan was suspended in 25 ml of water for injection in a porcelain mortar, to obtain a suspension of spray-dried powder equivalent to 0.4 mg of tolvaptan per ml of suspension.
The following tests were conducted to examine the oral absorption features of each suspension and solution. Male rats (body weight: about 160 g) that had been fasted for about 18 hours were used as test animals. The above suspension or solution were each administered by forced oral administration using a sonde for oral administration at a dose of 2.5 ml/kg of body weight, producing 1 mg of tolvaptan per kg of body weight. The blood samples were collected from the jugular vein under light diethyl ether anesthesia at the time of 0.5 hour, 1 hour, 2 hours, 3 hours, 4 hours, 6 hours, 8 hours and 10 hours later after dosing. The serum concentrations of tolvaptan (ng/ml) were determined by using UPLC-MS/MS (Waters).
The average pharmacokinetic parameters were calculated from the results.

Cc1ccccc1C(=O)Nc1ccc(C(=O)N2CCCC(OC(=O)CCC(=O)O)c3cc(Cl)ccc32)c(C)c1 (stereo not drawn) [Example 1, {7-Chloro-1-[2-methyl-4-(2-methyl-benzoylamino)-benzoyl]-2,3,4,5-tetrahydro-1H-benzo[b]azepin-5-yl} Succinate]
AUC∞ [1]: 96.1 ± 18.1 ng·h/mL | Cmax [1]: 16.2 ± 4.8 ng/mL | MRT∞ [1]: 4.45 ± 0.64 h | Tmax [1]: 2.00 ± 0.00 h

Cc1ccccc1C(=O)Nc1ccc(C(=O)N2CCCC(O)c3cc(Cl)ccc32)c(C)c1 (stereo not drawn) [Tolvaptan]
AUC(0-inf) ([1]; rat): 80.9 ± 28.5 ng·h/mL | MRT inf ([1]; rat): 2.95 ± 0.35 h | Cmax ([1]; rat, read-out: Cmax): 26.4 ± 12.9 ng/mL | Tmax ([1]; rat, read-out: Tmax): 1.5 ± 0.58 h | AUC(0-inf) [2]: 92.4 ± 27 ng·h/mL | Cmax [2]: 26.9 ± 11.6 ng/mL | MRT inf [2]: 2.96 ± 0.47 h | Tmax [2]: 1 h
